Measurements taken from patent US6906049B1, “Contraceptive medicine based on a progestational agent and an oestrogen and preparation method” (Laboratoire Theramex, priority 1996, dated 2005).

Columns and labels:
ovulation [1] = settings: cited from earlier work
ovulation [2] = experiment: Inhibition of ovulation in women (literature data); format: in vivo; settings: as defined by Neumann (1977)
Procedure: The oestrogenic component involves oestradiol or an ester or an ether thereof, such as, for example, the valerate, benzoate, enanthate, etc., the doses used being calculated as oestradiol equivalents. The doses range from 0.3 mg to 3 mg per day with a preference for a range from 0.5 mg to 2 mg per day. According to the literature data (Hirvonen, 1995), a dose of 4 mg is needed to ensure the inhibition of ovulation, but they correspond to the doses used to compensate for hypooestrogenic states. For example, in menopausal women, the dose recommended to compensate for hypooestrogenic states is about 1.5 mg.
(§1) The ratio of the ovulation-inhibiting activity in women (in mg/day) to the endometrial luteinizing |activity (in mg/cycle) as defined by Neumann (1977) is thus in the order of 0.2, i.e. close to those of cyproterone acetate and chlormadinone acetate; this indicates a strong central activity (Oettel et al., 1999). In this sense, it clearly differs from dienogest, whose activity is disequilibrated to the benefit of the peripheral activity.

women = experiment: Another clinical trial, same methodology, with the progestative agent alone; format: in vivo; settings: NOMAC 1.25 mg alone (n=3), treated cycle
Procedure: This synergistic effect of oestradiol is confirmed by comparing the results of this study with those of another clinical trial performed according to the same methodology, but with the progestative agent alone. […] On the other hand, the addition of oestradiol lowers the plasmatic levels of oestradiol, assayed 24 hours after taking the medicinal product, by about […]; this parameter is a good reflection of the endogenous secretion of the ovaries (Table II).

endometrium = experiment: Clinical trial similar to the Kaufmann's trial (endometrial conversion); format: in vivo, women
Excerpt: as §1

[3] = test system: female volunteers in the period of ovarian activity; experiment: Randomized double-blind study of the anti-ovulatory action of the oestradiol/nomegestrol acetate combination in 38 female volunteers; format: in vivo, women; settings: day 1-21, m ± sem
Procedure: The anti-ovulatory action of the oestradiol/nomegestrol acetate combination was evaluated in a randomized double-blind study on 38 female volunteers, in good health, aged 18 to 35, in the period of ovarian activity, for whom it was checked beforehand, by means of an assay of the progesterone in the plasma and the establishment of a temperature curve, that they had ovulatory menstrual cycles.
The women were monitored for two consecutive cycles: the first was a control cycle without treatment; during the following cycle (cycle under treatment), they received a hormonal treatment administered orally daily from the 1st to the 21st day of the cycle.
According to the randomization: • 9 women received 1.5 mg of oestradiol+0.625 mg of nomegestrol acetate (group A), • 10 others received 1.5 mg of oestradiol+1.25 mg of nomegestrol acetate (group B), • another 10 received 1.5 mg of oestradiol+2.5 mg of nomegestrol acetate (group C), • and the other 9 were treated with nomegestrol acetate alone at a dose of.2.5 mg (group D).
During the control cycle, the hormonal parameters were not significantively different among the four groups. Table I indicates the mean concentrations observed for each hormonal parameter in the course of the 21 days of treatment.

## C[C@]12CC[C@@H]3c4ccc(O)cc4CC[C@H]3[C@@H]1CC[C@@H]2O [oestradiol, 17beta-oestradiol]
Ovulation [1]; oestradiol alone, Hirvonen, 1995
  Dose needed to ensure the inhibition of ovulation: 4 mg

## CC(=O)O[C@]1(C(C)=O)CC[C@H]2[C@@H]3C=C(C)C4=CC(=O)CC[C@@H]4[C@H]3CC[C@@]21C [NOMAC, nomegestrol acetate]
Ovulation [2]
  Ratio of ovulation-inhibiting activity (mg/day) to endometrial luteinizing activity (mg/cycle): ~0.2
Ovulation [1]; given alone at 1.25 mg per day, oestradiol level in plasma increases
  Effect on ovulation: abolishes ovulation
Ovulation [1]; nomegestrol acetate alone, Bazin et al., 1987
  Daily dose giving inhibition of ovulation and of follicle development in women: 2.5 mg
women
  FSH mean concentration in the plasma: 3.3 mIU/ml
  LH mean concentration in the plasma: 3.1 mIU/ml
  Oestradiol mean concentration in the plasma: 158.8 pg/mL
endometrium; daily dose
  Daily dose giving endometrial conversion: 1 mg
endometrium; entire cycle
  Dose for the entire cycle giving endometrial conversion: 10 mg
[3]; Group D (n=9): 2.5 mg NOMAC alone oral daily
  LH mean concentration in the plasma: 5.6 ± 0.62 mIU/ml
[3]; Group D: 2.5 mg NOMAC alone
  FSH mean concentration in the plasma: 7.6 ± 0.28 mIU/ml
  Oestradiol mean concentration in the plasma: 31.9 ± 3.91 pg/mL
  Progesterone mean concentration in the plasma: 0.07 ± 0.014 ng/mL
